Measured values from ChEMBL document CHEMBL3879899, “Gastrin releasing peptide compounds” (2011).
Calls of active or inactive are those of the source. No cut-off for these calls is given here. Where a SMILES comes first, the peptide text is derived from it. The star is where a group is joined. Me2Gly = CN(C)CC(=O)*; Acm = CC(=O)NC*

Legend:
[1] = molecular target: T1, Gastrin-releasing peptide receptor (Homo sapiens, UniProt P30550); assay: Displacement of [125I]-BBN from GRPR in human PC3 cells after 1 hr by compuGamma counting or microplate scintillation counting method; format: cell-based, PC-3
Target sequence in this assay (P30550 whole entry): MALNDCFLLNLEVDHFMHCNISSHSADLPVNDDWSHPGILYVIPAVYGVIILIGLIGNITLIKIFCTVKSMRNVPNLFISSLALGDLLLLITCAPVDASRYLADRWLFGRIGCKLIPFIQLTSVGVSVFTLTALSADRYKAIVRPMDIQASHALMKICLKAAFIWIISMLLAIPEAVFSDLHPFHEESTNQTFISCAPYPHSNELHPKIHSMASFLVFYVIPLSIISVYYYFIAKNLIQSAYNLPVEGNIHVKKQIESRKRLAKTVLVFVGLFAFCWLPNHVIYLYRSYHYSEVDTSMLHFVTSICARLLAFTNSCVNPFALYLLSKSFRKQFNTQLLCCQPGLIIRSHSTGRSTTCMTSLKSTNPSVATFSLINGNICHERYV

[2] = molecular target: T2, Neuromedin-B receptor (Rattus norvegicus, UniProt P24053); assay: Displacement of [125I]-NMB from NMB receptor in rat C6 cells; format: cell-based
T2 sequence (P24053 whole entry): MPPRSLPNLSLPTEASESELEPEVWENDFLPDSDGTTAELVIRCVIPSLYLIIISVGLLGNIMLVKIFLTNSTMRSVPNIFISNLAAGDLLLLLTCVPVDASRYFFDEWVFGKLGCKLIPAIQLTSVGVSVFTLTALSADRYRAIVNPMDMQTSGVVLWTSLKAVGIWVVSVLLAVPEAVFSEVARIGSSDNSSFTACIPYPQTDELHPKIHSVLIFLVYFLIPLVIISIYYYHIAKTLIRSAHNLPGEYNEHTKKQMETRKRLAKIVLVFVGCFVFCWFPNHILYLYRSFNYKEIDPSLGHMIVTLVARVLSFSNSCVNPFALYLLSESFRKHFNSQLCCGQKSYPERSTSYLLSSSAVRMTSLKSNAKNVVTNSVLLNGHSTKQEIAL

[3] = molecular target: T1, Gastrin-releasing peptide receptor; assay: Binding affinity to GRP receptor in human colon smooth muscle after 1 hr by autoradiography
Target sequence in this assay (P30550 whole entry, looked up): as the sequence (P30550 whole entry) above

[4] = Drug efflux in human PC3 cells after 2 hrs by gamma counting method; format: ADME, cell-based; conditions: pc-3, 2 h
[5] = Drug internalization in human PC3 cells after 40 mins by gamma counting method; format: ADME, cell-based; conditions: pc-3, 40 min

Structure (SMILES)	IC50 [1] [nM]	IC50 [2] [nM]	other results
CSCC[C@H](NC(=O)[C@H](CC(C)C)NC(=O)[C@H](Cc1cnc[nH]1)NC(=O)CNC(=O)[C@@H](NC(=O)[C@H](C)NC(=O)[C@@H](N)Cc1c[nH]c2ccccc12)C(C)C)C(N)=O	> 800	> 800	–
CSCC[C@H](NC(=O)[C@H](CC(C)C)NC(=O)[C@H](Cc1cnc[nH]1)NC(=O)CNC(=O)[C@@H](NC(=O)[C@H](C)NC(=O)[C@H](Cc1c[nH]c2ccccc12)NC(=O)[C@H](CCC(N)=O)NC(=O)[C@H]1CC[C@H](CNC(=O)[C@H]2CC[C@H](CNC(=O)CN3CCN(CC(=O)O)CCN(CC(=O)O)CCN(CC(=O)O)CC3)CC2)CC1)C(C)C)C(N)=O	–	0.3	–
CSCC[C@H](NC(=O)[C@H](CC(C)C)NC(=O)[C@H](Cc1cnc[nH]1)NC(=O)CNC(=O)[C@@H](NC(=O)[C@H](C)NC(=O)[C@H](Cc1c[nH]c2ccccc12)NC(=O)[C@H](CCC(N)=O)NC(=O)[C@H](CCCNC(=N)N)NC(=O)[C@H](CCCCNC(=O)COCCOCCOCC(=O)N[C@H]1CC[C@]2(C)[C@H]3C[C@H](O)[C@]4(C)[C@@H]([C@H](C)CCC(=O)O)CC[C@H]4[C@@H]3CC[C@]2(C)C1)NC(=O)CNC(=O)CN1CCN(CC(=O)O)CCN(CC(=O)O)CCN(CC(=O)O)CC1)C(C)C)C(N)=O	> 50	–	–
CSCC[C@H](NC(=O)[C@H](CC(C)C)NC(=O)[C@H](Cc1cnc[nH]1)NC(=O)CNC(=O)[C@@H](NC(=O)[C@H](C)NC(=O)[C@H](Cc1c[nH]c2ccccc12)NC(=O)[C@H](CCC(N)=O)NC(=O)C[C@@H]1NC(=O)C2C[C@H](NC(=O)CN3CCN(CC(=O)O)CCN(CC(=O)O)CCN(CC(=O)O)CC3)CN2C1=O)C(C)C)C(N)=O (stereo partly specified)	> 50	–	–
CSCC[C@H](NC(=O)[C@H](CC(C)C)NC(=O)[C@H](Cc1cnc[nH]1)NC(=O)CNC(=O)[C@@H](NC(=O)[C@H](C)NC(=O)[C@H](Cc1c[nH]c2ccccc12)NC(=O)[C@H](CCC(N)=O)NC(=O)CN1CN(c2ccccc2)C2(CCN(C(=O)CN3CCN(CC(=O)O)CCN(CC(=O)O)CCN(CC(=O)O)CC3)CC2)C1=O)C(C)C)C(N)=O	> 50	–	–
CSCC[C@H](NC(=O)[C@H](CC(C)C)NC(=O)[C@H](Cc1cnc[nH]1)NC(=O)CNC(=O)[C@@H](NC(=O)[C@H](C)NC(=O)[C@H](Cc1c[nH]c2ccccc12)NC(=O)[C@H](CCC(N)=O)NC(=O)Cn1cnc2ccc(N3CCN(C(=O)CN4CCN(CC(=O)O)CCN(CC(=O)O)CCN(CC(=O)O)CC4)CC3)cc2c1=O)C(C)C)C(N)=O	> 50	–	–
CSCC[C@H](NC(=O)[C@H](CC(C)C)NC(=O)[C@H](Cc1cnc[nH]1)NC(=O)CNC(=O)[C@@H](NC(=O)[C@H](C)NC(=O)[C@H](Cc1c[nH]c2ccccc12)NC(=O)[C@H](CCC(N)=O)NC(=O)[C@@H]1Cc2cccc3c2N1C(=O)[C@@H](NC(=O)CN1CCN(CC(=O)O)CCN(CC(=O)O)CCN(CC(=O)O)CC1)CC3)C(C)C)C(N)=O	> 50	–	–
CSCC[C@H](NC(=O)[C@H](CC(C)C)NC(=O)[C@H](Cc1cnc[nH]1)NC(=O)CNC(=O)[C@@H](NC(=O)[C@H](C)NC(=O)[C@H](Cc1c[nH]c2ccccc12)NC(=O)[C@H](CCC(N)=O)NC(=O)[C@H](CCCNC(=N)N)NC(=O)[C@H](CCCCNC(=O)CNC(=O)CN1CCN(CC(=O)O)CCN(CC(=O)O)CCN(CC(=O)O)CC1)NC(=O)COCCOCCOCC(=O)N[C@H]1CC[C@]2(C)[C@H]3C[C@H](O)[C@]4(C)[C@@H]([C@H](C)CCC(=O)O)CC[C@H]4[C@@H]3CC[C@]2(C)C1)C(C)C)C(N)=O	> 50	–	–
CCCCC(NC(=O)[C@H](Cc1ccccc1)NC(=O)[C@H](Cc1cnc[nH]1)NC(=O)CCNC(=O)[C@@H](NC(=O)[C@H](C)NC(=O)[C@H](Cc1c[nH]c2ccccc12)NC(=O)[C@H](CCC(N)=O)NC(=O)C(N)Cc1ccc(O)cc1)C(C)C)C(N)=O (stereo in doubt)	–	–	Activity [3]: Active
CSCC[C@H](NC(=O)[C@H](CC(C)C)NC(=O)[C@H](Cc1cnc[nH]1)NC(=O)CNC(=O)[C@@H](NC(=O)[C@H](C)NC(=O)[C@H](Cc1c[nH]c2ccccc12)NC(=O)[C@H](CCC(N)=O)NC(=O)[C@H](CCCCN)NC(=O)[C@H](CO)NC(=O)CNC(=O)[C@H](CSCNC(C)=O)NC(=O)[C@H](CO)NC(=O)CN(C)C)C(C)C)C(N)=O (Me2Gly-SC(Acm)GSKQWAVGHLM-NH2)	2	–	–
CSCC[C@H](NC(=O)[C@H](CC(C)C)NC(=O)[C@H](Cc1c[nH]cn1)NC(=O)CNC(=O)[C@@H](NC(=O)[C@H](C)NC(=O)[C@H](Cc1c[nH]c2ccccc12)NC(=O)[C@H](CCC(N)=O)NC(=O)CN1CCCC[C@H](NC(=O)CN2CCN(CC(=O)O)CCN(CC(=O)O)CCN(CC(=O)O)CC2)C1=O)C(C)C)C(N)=O	–	–	IC50 ([1]; pc-3): 50 nM
CSCC[C@H](NC(=O)[C@H](CC(C)C)NC(=O)[C@H](Cc1cnc[nH]1)NC(=O)CNC(=O)[C@@H](NC(=O)[C@H](C)NC(=O)[C@H](Cc1c[nH]c2ccccc12)NC(=O)[C@H](CCC(N)=O)NC(=O)[C@H](CC(N)=O)NC(=O)CNC(=O)[C@H](CC(C)C)NC(=O)[C@H](CCCN=C(N)N)NC(=O)[C@H](CCC(N)=O)NC(=O)[C@@H]1CCC(=O)N1)C(C)C)C(N)=O [BOMBESIN]	–	–	Drug transport [4]: 35%; Drug uptake [5]: 59%

Continued, in another order:

IC50 [1] [nM]	IC50 [2] [nM]	Structure (SMILES)	other results
> 50	–	CSCC[C@H](NC(=O)[C@H](CC(C)C)NC(=O)[C@H](Cc1cnc[nH]1)NC(=O)CNC(=O)[C@@H](NC(=O)[C@H](C)NC(=O)[C@H](Cc1c[nH]c2ccccc12)NC(=O)[C@H](CCC(N)=O)NC(=O)[C@@H]1CSC2CC[C@H](NC(=O)CN3CCN(CC(=O)O)CCN(CC(=O)O)CCN(CC(=O)O)CC3)C(=O)N21)C(C)C)C(N)=O (stereo partly specified)	–
> 50	–	CSCC[C@H](NC(=O)[C@H](CC(C)C)NC(=O)[C@H](Cc1cnc[nH]1)NC(=O)CNC(=O)[C@@H](NC(=O)[C@H](C)NC(=O)[C@H](Cc1c[nH]c2ccccc12)NC(=O)[C@H](CCC(N)=O)NC(=O)CN1CCN(C(=O)CN2CCN(CC(=O)O)CCN(CC(=O)O)CCN(CC(=O)O)CC2)CC1)C(C)C)C(N)=O	–
–	60	CSCC[C@H](NC(=O)[C@H](CC(C)C)NC(=O)[C@H](Cc1cnc[nH]1)NC(=O)CNC(=O)[C@@H](NC(=O)[C@H](C)NC(=O)[C@H](Cc1c[nH]c2ccccc12)NC(=O)[C@H](CCC(N)=O)NC(=O)[C@H](CCC(=O)O)NC(=O)[C@H](CCCCN)NC(=O)CNC(=O)[C@H](CSCNC(C)=O)NC(=O)[C@H](CO)NC(=O)CN(C)C)C(C)C)C(N)=O	–
2.2	3.36	CSCC[C@H](NC(=O)[C@H](CC(C)C)NC(=O)[C@H](Cc1cnc[nH]1)NC(=O)CNC(=O)[C@@H](NC(=O)[C@H](C)NC(=O)[C@H](Cc1c[nH]c2ccccc12)NC(=O)[C@H](CCC(N)=O)NC(=O)[C@H](CC(N)=O)NC(=O)CNC(=O)[C@H](Cc1ccc(O)cc1)NC(=O)[C@H](CCCNC(=N)N)NC(=O)[C@H](CCC(N)=O)NC(=O)[C@H](CCC(=O)O)NC(=O)[C@H]1CCCN1)C(C)C)C(N)=O	–
–	0.07 to 0.8	CSCC[C@H](NC(=O)[C@H](Cc1ccccc1)NC(=O)[C@H](Cc1c[nH]cn1)NC(=O)CNC(=O)[C@@H](NC(=O)[C@H](C)NC(=O)[C@H](Cc1c[nH]c2ccccc12)NC(=O)[C@H](CC(C)C)NC(=O)c1ccc(NC(=O)CNC(=O)CN2CCN(CC(=O)O)CCN(CC(=O)O)CCN(CC(=O)O)CC2)cc1)C(C)O)C(N)=O (stereo partly specified)	–
–	> 250	CSCC[C@H](NC(=O)[C@H](CC(C)C)NC(=O)[C@H](Cc1cnc[nH]1)NC(=O)CNC(=O)[C@@H](NC(=O)[C@H](C)NC(=O)[C@H](Cc1c[nH]c2ccccc12)NC(=O)[C@H](CCC(N)=O)NC(=O)CN1CCN(CC(=O)O)CCN(CC(=O)O)CCN(CC(=O)O)CC1)C(C)C)C(N)=O	–
